Experimental findings from patent US20230220029A1, “ANTIVIRAL […] AND USES THEREOF” (VIRGINIA COMMONWEALTH UNIVERSITY, priority 2020, published 2023) are described below.

Data set [1] addresses HRP-conjugated-S-protein-RBD binding to hACE2 (Severe acute respiratory syndrome coronavirus 2, UniProt P0DTC2). As to the kind of experiment: biochemical. Also on record: species or system SARS-CoV-2. The following applies: sVNT ELISA, dose-dependent, FIG. 4. For orientation: In an ELISA, binding on a coated surface is turned into a signal by an enzyme label.
Data set [2] can be described thus: Peptide stability by repeating the sVNT ELISA two months apart with the same solubilized peptide. The format is physicochemical. The following applies: ELISA tests two months apart with the same solubilized peptide. From the text: FIGS. 4A-B. Surrogate virus test results for peptide 122023-C. FIG. 4A are results obtained in a first experiment and FIG. 4B are results obtained in a second experiment two months later using the same solubilized peptide.

The test system of another data set is SARS-CoV-2, USA-WA1/2020. To be noted: USA-WA1/2020, 1 h, 200 μM.
Data set [3] has as its target HRP-conjugated-S-protein-RBD (SARS-CoV-2), P0DTC2.

Where a SMILES comes first, the peptide text is derived from it.

As for `CC(C)C[C@H](NC(=O)[C@H](CC(=O)O)NC(=O)[C@H](CCC(=O)O)NC(=O)[C@H](CC(C)C)NC(=O)[C@H](CCC(N)=O)NC(=O)[C@H](CCC(=O)O)NC(=O)[C@H](CC(N)=O)NC(=O)[C@H](Cc1ccccc1)NC(=O)[C@H](CCCNC(=N)N)NC(=O)[C@H](CCC(=O)O)NC(=O)[C@H](CC(C)C)NC(=O)[C@H](Cc1ccccc1)NC(=O)[C@H](Cc1ccc(O)cc1)NC(=O)[C@H](CCCCN)NC(=O)[C@H](CC(C)C)NC(=O)[C@H](CCC(N)=O)NC(=O)[C@H](CCC(N)=O)NC(=O)[C@@H](N)CCC(=O)O)C(=O)N[C@@H](Cc1ccccc1)C(=O)N[C@@H](Cc1ccc(O)cc1)C(=O)N[C@@H](CCC(N)=O)C(=O)N[C@@H](CO)C(=O)N[C@@H](CO)C(=O)O` [Peptide 122023-C] (H-EQQLKYFLERFNEQLEDLFYQSS-OH), the IC50 (usually the concentration that inhibits the measured activity by half) in data set [1] was about 33.8 nM. Moreover, the peptide stability entry in data set [2] was “Excellent peptide stability”.

As to `CC(C)C[C@H](NC(=O)[C@H](CCC(N)=O)NC(=O)[C@H](CCC(=O)O)NC(=O)[C@H](C)NC(=O)[C@H](Cc1ccccc1)NC(=O)[C@H](CCCNC(=N)N)NC(=O)[C@H](CCC(=O)O)NC(=O)[C@H](CC(C)C)NC(=O)[C@H](Cc1ccccc1)NC(=O)[C@H](Cc1ccc(O)cc1)NC(=O)[C@H](CCCCN)NC(=O)[C@H](CC(C)C)NC(=O)[C@H](CCC(N)=O)NC(=O)[C@H](CCC(N)=O)NC(=O)[C@@H](N)CCC(=O)O)C(=O)N[C@@H](CCC(=O)O)C(=O)N[C@@H](CCC(N)=O)C(=O)N[C@@H](CC(C)C)C(=O)N[C@@H](Cc1ccccc1)C(=O)N[C@@H](Cc1ccc(O)cc1)C(=O)N[C@@H](CCC(N)=O)C(=O)N[C@@H](CO)C(=O)N[C@@H](CO)C(=O)O` [Peptide 122023-A] (H-EQQLKYFLERFAEQLEQLFYQSS-OH; N-terminus and C-terminus assumed), the “inhibition at the highest concentration studied” value with SARS-CoV-2, USA-WA1/2020 was “up to 95%”.

Take EQQLKYFLERFNEQLEDLFYQSS (modifications not checked) [peptide 122023-C]: the IC50 in data set [3] is 0.1 µg/mL.
